Experimental data published in ChEMBL document CHEMBL1201862, “PubChem BioAssay data set” (2004).
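These data come from cells grown in 96-well plates and exposed to compound for 48 hours at five concentrations. At the GI50, growth is halved.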 The source made the active and inactive calls. Rule as the data show it: active = GI50 up to about 1.1 µM and inactive = higher.

Key:
Test in all cases: DTP human tumour cell line panel, 48 h
A549 = test system: A549
ACHN = test system: ACHN
BT-549 = test system: BT-549
CCRF-CEM = test system: CCRF-CEM
COLO 205 = test system: COLO 205
EKVX = test system: EKVX
HCC 2998 = test system: HCC 2998
HCT-116 = test system: HCT-116
HL-60 = test system: HL-60
IGROV-1 = test system: IGROV-1
Malme-3M = test system: Malme-3M
NCI/ADR-RES = test system: NCI/ADR-RES
OVCAR-5 = test system: OVCAR-5
PC-3 = test system: PC-3
RXF 393 = test system: RXF 393
SF-295 = test system: SF-295
SK-MEL-28 = test system: SK-MEL-28
SW-620 = test system: SW-620
T47D = test system: T47D
SNB-75 = test system: SNB-75

Measured: GI50

CC[C@@H](C)[C@H](NC(=O)[C@H](Cc1ccccc1)NCC(F)(F)F)C(=O)OC(C)(C)C
inactive: A549 > 100 µM | ACHN > 100 µM | BT-549 > 100 µM | CCRF-CEM 74.8 µM | COLO 205 > 100 µM | EKVX > 100 µM | HCC 2998 > 100 µM | HCT-116 > 100 µM | HL-60 > 100 µM | IGROV-1 > 100 µM | Malme-3M > 100 µM | NCI/ADR-RES > 100 µM | OVCAR-5 > 100 µM | PC-3 91.6 µM | RXF 393 42 µM | SF-295 > 100 µM | SK-MEL-28 > 100 µM | SW-620 > 100 µM | T47D 25.6 µM

CCCn1c(=O)c2ccccc2[n+]2c(-c3ccc([N+](=O)[O-])cc3)csc12
inactive: A549 47 µM | ACHN 35.9 µM | BT-549 33.9 µM | CCRF-CEM 27.2 µM | COLO 205 39.9 µM | EKVX 42.7 µM | HCC 2998 77.4 µM | HCT-116 23.8 µM | HL-60 24.4 µM | IGROV-1 20.3 µM | NCI/ADR-RES 7.67 µM | OVCAR-5 17.8 µM | PC-3 18.1 µM | RXF 393 18.1 µM | SF-295 30.8 µM | SNB-75 21.7 µM | SW-620 43.9 µM | T47D 30.6 µM

Nc1ccc(S(=O)(=O)C23CC4CC(CC(C4)C2)C3)cc1
inactive: A549 > 100 µM | ACHN > 100 µM | BT-549 > 100 µM | CCRF-CEM 49.8 µM | COLO 205 74.1 µM | EKVX > 100 µM | HCC 2998 > 100 µM | HCT-116 > 100 µM | HL-60 27.2 µM | IGROV-1 > 100 µM | Malme-3M > 100 µM | NCI/ADR-RES > 100 µM | OVCAR-5 > 100 µM | PC-3 51.5 µM | RXF 393 30.1 µM | SF-295 > 100 µM | SK-MEL-28 > 100 µM | SW-620 > 100 µM | T47D 34.1 µM

CSc1nc(C)c(CCOC(C)=O)c(Cl)n1
inactive: A549 > 100 µM | ACHN > 100 µM | BT-549 > 100 µM | CCRF-CEM > 100 µM | COLO 205 > 100 µM | EKVX > 100 µM | HCC 2998 > 100 µM | HCT-116 > 100 µM | HL-60 > 100 µM | IGROV-1 > 100 µM | Malme-3M > 100 µM | NCI/ADR-RES > 100 µM | OVCAR-5 > 100 µM | PC-3 > 100 µM | RXF 393 > 100 µM | SF-295 > 100 µM | SK-MEL-28 > 100 µM | SNB-75 > 100 µM | SW-620 > 100 µM | T47D > 100 µM

Cc1nc2ccccc2n1Cc1ccc(NC(=S)Nc2ccccc2)cc1
inactive: A549 80 µM | ACHN 35.2 µM | BT-549 61.1 µM | CCRF-CEM 36.8 µM | COLO 205 34.8 µM | EKVX 21.1 µM | HCC 2998 92 µM | HCT-116 31.6 µM | HL-60 24.8 µM | IGROV-1 > 100 µM | Malme-3M 30.4 µM | NCI/ADR-RES 72.3 µM | OVCAR-5 37.1 µM | PC-3 75.7 µM | RXF 393 60 µM | SF-295 34.3 µM | SK-MEL-28 66.7 µM | SNB-75 63.8 µM | SW-620 45 µM | T47D 18.6 µM

COc1ccccc1/N=N/C(=N/NC(=O)c1ccc(C)cc1)c1ccc(N(CCC#N)CCC#N)cc1OC
inactive: A549 33.5 µM | ACHN 19.6 µM | BT-549 32.3 µM | CCRF-CEM 18.6 µM | COLO 205 16 µM | EKVX 26.4 µM | HCC 2998 34.2 µM | HCT-116 25.1 µM | HL-60 10.8 µM | IGROV-1 37.6 µM | Malme-3M 38.1 µM | NCI/ADR-RES > 100 µM | OVCAR-5 > 100 µM | PC-3 26.5 µM | RXF 393 22.9 µM | SF-295 41 µM | SK-MEL-28 36 µM | SW-620 38.1 µM | T47D 18.7 µM

CC(=O)O[C@H]1[C@@H](N2CCN(C)CC2)C[C@H]2[C@@H]3CC=C4C[C@@H](N5CCCC5)CC[C@]4(C)[C@H]3CC[C@@]21C
inactive: A549 37.7 µM | ACHN > 100 µM | BT-549 > 100 µM | CCRF-CEM 30.4 µM | COLO 205 3.85 µM | EKVX 74.5 µM | HCC 2998 17.2 µM | HCT-116 16.9 µM | HL-60 11.2 µM | IGROV-1 68.4 µM | Malme-3M 26.1 µM | NCI/ADR-RES 98.4 µM | OVCAR-5 34.5 µM | PC-3 40.9 µM | RXF 393 22.2 µM | SF-295 21.7 µM | SK-MEL-28 28.1 µM | SNB-75 > 100 µM | SW-620 44.9 µM | T47D > 100 µM
